In patent EP0059645A1, “Method and kit for identification of beta-lactamases” (NATIONAL RESEARCH DEVELOPMENT CORPORATION, priority 1981, dated 1982):
Where two headings read alike, the source gives them in different places. Marks after values point to notes of the source that are not given here.

Experiments:
K17 = assay: Competitive assay with nitrocefin (RSAI); type: biochemical, Klebsiella 17
OXA-1 [1] = biological target: T1, OXA-1 (Escherichia coli, UniProt P13661); assay: Competitive assay with nitrocefin (RSAI); type: biochemical, E. coli 1527E; design: the beta-lactamase has to be extracted from the cells for the purpose of the present invention; made in house; host or cells: E. coli 1527E according to the earlier reading (crude cell extract)
K1073 = assay: Competitive assay with nitrocefin (RSAI); type: biochemical, Klebsiella 1073
[2] = biological target: T2, Chromosomal, hyper-induced beta-lactamase enzyme (Escherichia coli, UniProt P00811); assay: Competitive assay with nitrocefin (RSAI); type: biochemical, E. coli SNU35; design: Normally, therefore, the beta-lactamase has to be extracted from the cells for the purpose of the present invention; endogenous in cells; host or cells: E. coli SNU 35 (artificially produced strain)
PSE-3 = assay: Competitive assay with nitrocefin (RSAI); type: biochemical, Ps.aerug. 1920E
PSE-1 = PSE-1 (Pseudomonas aeruginosa, UniProt Q03170); assay: Competitive assay with nitrocefin (RSAI); type: biochemical, Ps.aerug. 1937E; design: Normally, therefore, the beta-lactamase has to be extracted from the cells for the purpose of the present invention; endogenous in cells
[3] = biological target: T3, Chromosomal, constitutive beta-lactamase enzyme (Enterobacter cloacae, UniProt P05364); assay: Competitive assay with nitrocefin (RSAI); type: biochemical, E. cloacae
T3 construct: Normally, therefore, the beta-lactamase has to be extracted from the cells for the purpose of the present invention; endogenous in cells

TEM-2 = TEM-2 (Escherichia coli, UniProt P62593, Q37K); assay: Competitive assay with nitrocefin (RSAI); type: biochemical, E. coli 1725E
SHV-1 = SHV-1 (Escherichia coli, UniProt P0AD63); assay: Competitive assay with nitrocefin (RSAI); type: biochemical, E. coli 2008E; design: the beta-lactamase has to be extracted from the cells for the purpose of the present invention; made in house; host or cells: E. coli 2008E (crude cell extract)
[4] = biological target: T4, Chromosomal, induced beta-lactamase enzyme (Pseudomonas aeruginosa, UniProt P24735); assay: Competitive assay with nitrocefin (RSAI); type: biochemical, Ps.aerug. 1937E + ampicillin
T4 construct: Normally, therefore, the beta-lactamase has to be extracted from the cells for the purpose of the present invention; endogenous in cells; host or cells: Pseudomonas aeruginosa 1937E grown with ampicillin

PSE-2 = PSE-2 (Pseudomonas aeruginosa, UniProt P14489); assay: Competitive assay with nitrocefin (RSAI); type: biochemical, Ps.aerug. 1973E; design: Normally, therefore, the beta-lactamase has to be extracted from the cells for the purpose of the present invention; endogenous in cells
TEM-1 = TEM-1 (Escherichia coli, UniProt P62593); assay: Competitive assay with nitrocefin (RSAI); type: biochemical, E. coli 2136E; design: the beta-lactamase has to be extracted from the cells for the purpose of the present invention; made in house; host or cells: E. coli 2136E (plasmid-bearing strain; crude cell extract)
K10317 = assay: Competitive assay with nitrocefin (RSAI); type: biochemical, K.aerog. 10317
PSE-4 = PSE-4 (Pseudomonas aeruginosa, UniProt P16897); assay: Competitive assay with nitrocefin (RSAI); type: biochemical, Ps.aerug. 1559E; design: Normally, therefore, the beta-lactamase has to be extracted from the cells for the purpose of the present invention; endogenous in cells
HMS-1 = assay: Competitive assay with nitrocefin (RSAI); type: biochemical, E. coli 1946
OXA-3 = OXA-3 (Pseudomonas aeruginosa, UniProt Q51429); assay: Competitive assay with nitrocefin (RSAI); type: biochemical, E. coli R57B; design: Normally, therefore, the beta-lactamase has to be extracted from the cells for the purpose of the present invention; endogenous in cells
OXA-2 [5] = biological target: T5, OXA-2 (Escherichia coli, UniProt P0A1V9); assay: Competitive assay with nitrocefin (RSAI); type: biochemical, E. coli R46; design: the beta-lactamase has to be extracted from the cells for the purpose of the present invention; made in house; host or cells: E. coli carrying R46 according to the earlier reading (crude cell extract)
[6] = tested on: "unknown" (unidentified) beta-lactamase; assay: Competitive assay with nitrocefin (RSAI) on an unidentified beta-lactamase; conditions: extract by the method of Example 6, assay as in Example 1; * = showed irreversible inhibition
[7] = biological target: T2, Chromosomal, hyper-induced beta-lactamase enzyme; assay: Hydrolysis of nitrocefin by enzyme (Michaelis constant); conditions: read-out: Km (Nitrocefin); enzyme No. 9
OXA-2 [8] = biological target: T5, OXA-2; assay: as above; conditions: read-out: Km (Nitrocefin); enzyme No. 6
OXA-1 [9] = biological target: T1, OXA-1; assay: Cleavage of chromogenic substrate by enzyme (PADAC example); conditions: PADAC monitored at 570 nm; same enzyme preparation for nitrocefin
[10] = tested on: O=C(Cc1cccs1)N[C@@H]1C(=O)N2C(C(=O)O)=C(C=Cc3ccc([N+](=O)[O-])cc3[N+](=O)[O-])CS[C@H]12; assay: purified protein, by the assay type; conditions: pH 7.0; 37.0 °C
[11] = tested on: O=C(Cc1cccs1)N[C@@H]1C(=O)N2C(C(=O)O)=C(C=Cc3ccc([N+](=O)[O-])cc3[N+](=O)[O-])CS[C@H]12; assay: purified protein, by the assay type; conditions: pH 7.0; 37.0 °C; remark: listed apart in the source

CO[C@@]1(NC(=O)C(C(=O)O)c2ccc(O)cc2)C(=O)N2C(C(=O)O)=C(CSc3nnnn3C)CO[C@@H]21 (some centres unmarked) [Moxalactam]
RSAI (K17): 3.5 | RSAI (OXA-1 [1]): 4* | RSAI (K1073): >80 | RSAI [2]: 0.002* | RSAI ([2]; listed as moxalactam): 0.002 | RSAI (PSE-3): 7 | RSAI (PSE-1): 3.5 | RSAI [3]: 0.0001* | RSAI ([3]; listed as moxalactam): 0.0001 | RSAI (TEM-2): 60* | RSAI (SHV-1): 280 | RSAI [4]: 0.006* | RSAI ([4]; listed as moxalactam): 0.006 | RSAI (PSE-2): 8.2 | RSAI (TEM-1): 40* | RSAI (K10317): 60* | RSAI (PSE-4): 4.3 | RSAI (HMS-1): 0.3* | RSAI (OXA-3): 1* | RSAI (OXA-2 [5]): 3* | RSAI [6]: 0.0001

O=C(Cc1cccs1)N[C@@H]1C(=O)N2C(C(=O)O)=C(C=Cc3ccc([N+](=O)[O-])cc3[N+](=O)[O-])CS[C@H]12 [Nitrocefin, 3-(2,4-dinitrostyryl)-(6R,7R)-7-(2-thienylacetamido)ceph-3-em-4-carboxylic acid]
Km [7]: 34.8 µM | Km (OXA-2 [8]): < 9.68 µM | cleavage of chromogenic substrate by the enzyme (OXA-1 [9]): cleaved

(Escherichia coli)
Km [10]: 16 µg/mL | Km [11]: 9 µg/mL
